Assay results as given in PubChem BioAssay (NCI).
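Step 1: Grow cells in 96-well plates. Step 2: Expose to compound for 48 hours at 5 concentrations. Step 3: Interpolate endpoints linearly; if unreached, use highest concentration. TGI marks complete inhibition of growth.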

Experiments:
Test in all cases: NCI tumour cell line growth inhibition, 48 h
[1] = tested on: DMS 273 small cell lung
[2] = tested on: KM20L2 colon
[3] = tested on: HOP-18 NSCLC
[4] = tested on: LXFL 529 NSCLC
[5] = tested on: M19-MEL melanoma
[6] = tested on: RXF-631 renal
[7] = tested on: SN12K1 renal
[8] = tested on: P388/ADR leukemia
[9] = tested on: P388 leukemia

SMILES: NC(=O)c1cc(C2OC(CO)C(O)C2O)nn1-c1ccc([N+](=O)[O-])cc1 (stereo unspecified)
- TGI [1]: > 100 µM
- TGI [2]: > 100 µM
- TGI [3]: > 100 µM
- TGI [4]: > 100 µM

SMILES: O=C(O)C(Br)Cc1ccc2c(c1)OCO2 (stereo unspecified)
- TGI [5]: > 100 µM
- TGI [2]: > 100 µM
- TGI [4]: > 100 µM

SMILES: COc1ccc(/C(Cl)=C(\C=O)c2ccc(Cl)c(Cl)c2)cc1OC
- TGI [1]: 21.7 µM
- TGI [5]: 23 µM
- TGI [6]: 16.6 µM
- TGI [2]: 18.8 µM
- TGI [4]: 13.7 µM

SMILES: CSc1sc(=S)sc1SC
- TGI [1]: > 100 µM
- TGI [7]: > 100 µM
- TGI [5]: > 100 µM
- TGI [8]: > 100 µM
- TGI [9]: > 100 µM
- TGI [2]: > 100 µM
- TGI [3]: > 100 µM

SMILES: Nc1nncs1
- TGI [1]: > 5000 µM
- TGI [7]: > 5000 µM
- TGI [5]: > 4550 µM
- TGI [8]: 2820 µM
- TGI [9]: 2670 µM
- TGI [2]: > 4800 µM
- TGI [3]: > 5000 µM
